Test results as given in paper PMC5556071, “ATR inhibition facilitates targeting of leukemia dependence on convergent nucleotide biosynthetic pathways” (Nature Communications, 2017).
Read-outs that look alike come from different tables or passages of the source.

Columns and labels:
[1] = Plasma pharmacokinetics after single dose oral co-administration; type: in vivo, C57BL/6 mice
Experimental: 3-AP, dCKi, VE-822 plasma concentrations were assessed at 0.5, 1, 2, 4, 6, 12 and 24 h following oral administration. Blood samples were collected in heparin-EDTA tubes by the retro-orbital technique and spun down to collect the supernatants. Four parts of methanol were added to plasma samples to precipitate proteins, and the supernatant was collected. Twenty microliter samples were injected onto a reverse phase column equilibrated in water 0.1% formic acid for LC-MS/MS-MRM analysis in positive ion mode. Plasma concentrations were determined by comparison to previously generated standard curves. A population pharmacokinetic modeling (NONMEM v. 7.2) with first-order conditional estimation (FOCE) was used to characterize the Cmax, half-life, and area under the curve (AUC) for 3-AP, dCKi, and VE-822. 3-AP and VE-822 were best described with a one compartment model while dCKi was best described by a two-compartment model. All three drugs were well described with first order absorption and a proportional error model. Clearance and volume were scaled by weight. […]
Plasma collection and pharmacokinetic assays. Blood was collected in heparin-EDTA tubes by retro-orbital technique at time points 0.25, 1, 6, and 24 h time points from the first set of mice and 0.5, 4, and 12 h from the second set of mice. Blood samples were spun at 2000 x g for 15 min and the plasma supernatants were collected. All plasma samples were frozen down at –20 °C before sample processing. The stock solutions of 3-AP, VE-822, DI-82, 3-AP analog (NSC 266749), VE-821 (Selleckchem), DI-39 were prepared individually by dissolving the appropriate amount of each drug in a known volume of dimethyl sulfoxide (DMSO) to a 10 mM concentration and were stored at –20 °C before use. The 3-AP analog, VE-821 and DI-39 (internal standards) were diluted to 200 nM in methanol to make the internal solution. The calibration standards were prepared by spiking working stock solutions of 3-AP, VE-822 and DI-82 in plasma from untreated mice to give 0.01-10 pmol/µL range. Each 20 µL calibration standard sample was mixed with 60 µL of internal solution (methanol with 200 nM internal standards) and vortexed for 30 s. Following centrifugation at 15,000 x g for 10 min, approximately 60 µL of sample was carefully transferred into HPLC injector vials for LC-MS/MS-MRM analysis.
Plasma samples were processed the same way as the calibration standard samples. 20 μL samples were injected onto a reverse phase column, (Thermo Scientific Hypersil GOLD column 3.0 µm; 2.1 x 100 mm) equilibrated in water/formic acid, 100/0.1, and eluted (200 μL/min) with an increasing concentration of solvent […]
The effluent from the column was directed to the Agilent Jet Stream ion source connected to the triple quadrupole mass spectrometer (Agilent 6460) operating in the multiple reaction monitoring (MRM) mode using previously optimized settings. The following drug precursor→fragment ion transitions were used: 3-AP

CEM cells = assay: Cell cycle analysis of asynchronous cells by flow cytometry (S-phase population, S-phase arrest); type: cell-based, human; details: for percentage of cell population in S-phase: asynchronous CEM, 12 h, VE-822 1 µM, DI-82 1 µM
Experimental: Cell cycle histograms. Cells were plated at a density of 0.5 x 10^6 cells/mL in respective media or drug treated media. Following 24 h incubation, cells were harvested and washed twice with PBS twice before staining with 0.5 ml of propidium iodide (Calbiochem, #P3566, 1 µg/mL) solution containing Ribonuclease A and 0.3% Triton-X 100. The samples were protected from light before acquisition by flow cytometry.
Cell cycle kinetics and cell cycle progression by intracellular detection of DNA-incorporated 5-ethynyl-2-deoxyuridine (EdU). CEM T-ALL cells were plated at a density of 0.5 x 10^6 cells/mL. Cells were pulsed with 10 µM EdU (Invitrogen) for 1 h, washed twice with PBS, and released in fresh media containing 5 µM deoxyribonucleosides, with and without drugs. Cells were collected at different time points following release in fresh media, and then fixed with 4% paraformaldehyde and permeabilized using saponin perm/wash reagent (Invitrogen). Cells were then stained with azide-Alexa Fluor 647 by Click reaction according to manufacturer’s protocol (Invitrogen; Click-iT EdU Flow cytometry kit, #C10634). […]

[2] = 3-AP 15, VE-822 40, dCKi 50 mg kg−1
[3] = C57BL/6, mouse, 40 mg/kg, 3-AP 15, VE-822 40, dCKi 50 mg kg−1

| Structure (SMILES) | AUC [1, 2] [µM·h] | Cmax [1, 2] [µM] | t1/2 [1, 2] [h] | percentage of cell population in S-phase (CEM cells; + dNTP (10 µM)) [%] | percentage of cell population in S-phase (CEM cells; – dNTP) [%] | Cmax [1, 3] [µM] | half-life [1, 3] [h] | AUC ([1]; C57BL/6, mouse, 40 mg/kg, 3-AP 15, VE-822 40, dCKi 50 mg kg−1, read-out: AUC) [µM·h] | concentration inducing S-phase arrest (CEM cells; CEM, 24 h) [µM] |
| --- | --- | --- | --- | --- | --- | --- | --- | --- | --- |
| COc1ccc(-c2nc([C@@H](C)Sc3nc(N)cc(N)n3)c(C)s2)cc1OCCNS(C)(=O)=O [dCKi] | 63 ± 4 | 6.4 ± 0.7 | 8.5 ± 3.0 | 31 | 30 | – | – | – | – |
| CNCc1ccc(-c2cc(-c3nc(-c4ccc(S(=O)(=O)C(C)C)cc4)cnc3N)on2)cc1 [VE-822] | – | – | – | 37 | 42 | 1.8 ± 0.2 | 17 ± 1 | 55 ± 2 | – |
| NC(=S)N/N=C/c1ncccc1N [3-AP] | 9.2 ± 1.8 | 2.3 ± 0.7 | 3.3 ± 1.0 | – | – | – | – | – | 0.5 |
